Source: paper PMC9260667, “Thioredoxin Reductase Inhibitors as Potential Antitumors: Mercury Compounds Efficacy in Glioma Cells” (Frontiers in Molecular Biosciences, 2022)
Where two headings read alike, the source gives them in different places.

Experiments:
Trx1 and Trx2 = assay: Trx oxidation state (Redox Western); format: cell-based, mouse; details: GL261, 1 µM, 24 h
Experimental: The redox state of Trx1 and Trx2 was evaluated by the quantification of the number of reduced -SH groups (Free -SH), according to the Protein Electrophoretic Mobility Shift Assay ([Bersani et al., 2002]; [Branco et al., 2017]).
Briefly, after exposure to the TmHg and EtHg for 24 h, cell pellets were resuspended in Sample Solution (SS - Tris 50 mM, Urea 8 M, pH 8.3) containing 30 mM of iodoacetic acid (IAA; Sigma) and incubated at 37°C for 30 min to alkylate free thiols. This was followed by centrifugation at 13,000 g for 10 min, and the resulting supernatant was washed 3 times with an acetone/1 M HCl mix (98:2 v/v), followed by centrifugation at 13,000 g for 5 min. After evaporation of the acetone mixture, the resulting pellet was incubated at 37°C for 30 min in a SS solution containing 5 mM of DTT to reduce thiols oxidized by TmHg and EtHg. Posteriorly, these thiols were alkylated with SS containing 10 mM iodoacetamide (IAM; Sigma) at 37°C for 30 min.
Next, the samples were loaded onto a Urea-PAGE gel (stacking gel: 4% acrylamide; run gel: 12% acrylamide; 8 M Urea) and run at 10 mA. After 2 h, the proteins in the gel were transferred to a nitrocellulose membrane blocked with skimmed milk and incubated with respective antibodies - Trx1 rabbit polyclonal IgG (ATRX8, IMCO Corp.), Trx2 rabbit polyclonal IgG (sc-50335, Sta. Cruz) and mouse anti-rabbit IgG-HRP (sc-2357, Sta. Cruz). […]

TrxR [1] = target: T1, TrxR (Mus musculus, UniProt Q9JLT4); format: cell-based; details: mitochondria, 1 µM, 24 h
T1 construct: These lysates were compared to a control group and used to quantify TrxR and Trx activity and expression; These fractions were used to quantify TrxR and Trx activity and expression; endogenous in cells; host or cells: GL261 mouse glioma cells (whole lysate, cytosolic and mitochondrial fractions)
T1 sequence (Q9JLT4 35-524): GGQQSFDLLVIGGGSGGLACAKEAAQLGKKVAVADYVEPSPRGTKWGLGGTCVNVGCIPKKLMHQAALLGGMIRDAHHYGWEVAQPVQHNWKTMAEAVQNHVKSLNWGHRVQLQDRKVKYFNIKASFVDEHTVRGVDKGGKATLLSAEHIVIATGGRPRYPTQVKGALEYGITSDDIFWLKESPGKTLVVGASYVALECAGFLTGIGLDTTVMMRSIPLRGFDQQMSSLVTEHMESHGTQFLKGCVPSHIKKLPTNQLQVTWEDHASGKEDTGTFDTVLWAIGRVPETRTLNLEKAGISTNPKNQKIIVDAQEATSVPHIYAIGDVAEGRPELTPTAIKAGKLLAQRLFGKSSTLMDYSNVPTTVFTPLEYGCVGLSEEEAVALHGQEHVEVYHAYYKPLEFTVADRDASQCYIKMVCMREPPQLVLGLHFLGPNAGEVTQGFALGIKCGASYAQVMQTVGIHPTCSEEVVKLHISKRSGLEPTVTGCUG
Experimental: (§1) Total cell lysates were prepared according to previous protocols ([Branco et al., 2014]). 1 × 10^6 cells were plated in […] culture dishes incubated at 37°C until reaching 70–80% confluence. At this point, the culture medium was refreshed and TmHg and EtHg (0.5; 1; 2 µM) were added and incubated at 37°C for 24 h, after which cells were collected by trypsinization and washed with PBS 1x. Subsequently, the pellet was resuspended in lysis buffer (25 mM TrisCl, pH 7.5; 100 mM NaCl; 2.5 mM EDTA; 2.5 mM EGTA; 20 mM NaF, 1 mM sodium orthovanadate, 20 mM sodium pyrophosphate; 20 mM of sodium β-glycerophosphate, 0.5% Triton X-100, and 1 tablet of protease inhibitor cocktail per 10 ml; Roche) vortexed and frozen at −20°C. These lysates were compared to a control group and used to quantify TrxR and Trx activity and expression as described below.
(§2) To obtain the mitochondrial and cytosolic fractions, after exposure to Hg compounds cells were washed and suspended in mitochondrial isolation buffer (210 mM mannitol, 70 mM sucrose, 1 mM EDTA, 10 mM Hepes–NaOH, and pH 7.5), containing protease inhibitor cocktail (Roche). Cells were disrupted with a Teflon pestle and then centrifuged at 600 g for 10 min at 4°C. The resulting nuclear pellets were discarded, and the supernatant was further centrifuged at 13,000 g and 4°C for 15 min, to obtain the mitochondrial pellets and the supernatant soluble fraction. Mitochondrial pellets were treated with cell lysis buffer as described above for whole-cell lysates and the supernatant fraction was further centrifuged at 100,000 g and 4°C for 1 h, to produce the cytosolic fraction ([Branco et al., 2014]). These fractions were used to quantify TrxR and Trx activity and expression as described below.
(§3) The enzymatic activity of TrxR and Trx was determined according to the insulin end-point assay described by [Arnér and Holmgren (2000)] with modifications ([Branco et al., 2014]).
(§4) In parallel, control wells were prepared to contain the same reagents previously mentioned apart from Trx. After the incubation period, 250 µL of a 1 mM DTNB solution in 6 M guanidine-HCL (pH 8.0) was added to wells, and absorbance was measured at 412 nm in a microplate reader (Zenyth 3100, Anthos Labtec Instruments). […] The same procedure was done for the determination of Trx activity, but the samples were incubated with 100 nM of recombinant rat TrxR (IMCO Corp, Sweden) instead of Trx ([Branco et al., 2014]).

Trx = format: cell-based, mouse; details: whole-cell lysates, GL261 exposed 24 h
Experimental: as §1, §2, §3, §4

TrxR [2] = format: cell-based, mouse; details: for decrease of TrxR activity: cytosol, 1 µM, 24 h; for IC50: whole-cell lysates, GL261 exposed 24 h
Experimental: as §1, §2, §3, §4

GL261 cells = assay: cells; format: cell-based, mouse; details: read-out: IC50 (MTT assay)
Experimental: The effect of TmHg and EtHg on the viability of GL261 and N9 cells was evaluated by the MTT assay as previously described ([Branco et al., 2014]). Briefly, cells (5 × 10^3) were seeded in 96-well plates (Nunc®) and incubated at 37°C for 24 h to allow proper adherence to plates. Afterwards, TmHg and EtHg (0, 0.5, 1, 2.5, and 5 μM) were added to wells. The same procedure was carried out to evaluate the effect of TMZ on the cellular viability of GL261 and DMSO at a final concentration of 0.1% was added as a control group. For co-exposure, the addition of the mercury compounds (EtHg—1 and 2 μM; TmHg—1 and 2 µM) under study followed the addition of TMZ (200 µM).
Cell viability was determined at the time of addition of the compounds (0 h) and after 24, 48, and 72 h of exposure by adding MTT to a final concentration of 400 μg/ml per well and incubating at 37°C for 4 h. After incubation, the medium was removed, and the formazan crystals were dissolved in a 4:1 DMSO/glycine buffer (pH 10.5). After shaking for 15 min, the viability was evaluated through the measurement of formazan absorption at 550 nm on a microplate reader (Zenyth 3100, Anthos Labtec Instruments) ([Branco et al., 2014]).
The IC50 is the concentration of a compound that decreases MTT reduction by 50% relative to the non-treated control at each time point.

SMILES | redox states of Trx1 and Trx2 (Trx1 and Trx2) | decrease of TrxR activity (TrxR [1]) | IC50 (Trx) | decrease of TrxR activity (TrxR [2]) | IC50 (TrxR [2]) | IC50 (GL261 cells; GL261, 24 h exposure) | IC50 (GL261 cells; GL261, 48 h exposure) | IC50 (GL261 cells; GL261, 72 h exposure)
C[CH2][Hg] [EtHg, ethylmercury] | increasing the oxidation of Cys residues in both isoforms | lesser effect | 1.3 µM | 50% | 0.8 µM | 2.7 ± 0.3 µM | 2.4 ± 0.4 µM | 0.97 ± 0.07 µM
C[CH2][Hg][S]c1ccccc1C(=O)[O-].[Na+] [TmHg, thimerosal] | increasing the oxidation of Cys residues in both isoforms | 60% | 0.7 µM | 60% | 0.7 µM | 2.5 ± 0.4 µM | 2.5 ± 0.4 µM | 0.92 ± 0.1 µM
